Assay results published in EPA's ToxRefDB 2.

What was measured:
rat [1] = conditions: Subchronic oral toxicity in rodents, wistar, Feed, dose end: 90 day, group: systemic
rat [2] = conditions: Multigenerational reproductive toxicity study, sprague dawley, Oral, Feed, dose end: 2 generation
mouse [3] = conditions: Carcinogenicity; cd1; Oral; Feed; dose end: 18 month; group: systemic; systemic / pathology gross / kidney / reduced size + systemic / pathology microscopic / kidney / inflammation + systemic / pathology …
rat [4] = conditions: Multigenerational reproductive toxicity study, sprague dawley, Oral, Feed, dose end: 2 generation; remark: listed apart in the source
rat [5] = conditions: Combined chronic toxicity/carcinogenicity, fischer, Oral, Feed, dose end: 24 month, group: systemic
rat [6] = conditions: Subchronic oral toxicity in rodents, fischer, Feed, dose end: 13 week, group: systemic
mouse [7] = conditions: Sub-acute repeat dose toxicity, cd1, Oral, Feed, dose end: 4 week, group: systemic
dog [8] = conditions: Subchronic oral toxicity in nonrodent, beagle, Feed, dose end: 13 week, group: systemic
mouse [9] = conditions: Carcinogenicity, other, Oral, Feed, dose end: 18 month, group: systemic
rabbit = conditions: Prenatal developmental toxicity study, other, Oral, Gavage/Intubation, dose end: 19 GD
rat [10] = conditions: Subchronic oral toxicity in rodents, other, Feed, dose end: 3 month, group: systemic, systemic / clinical chemistry / alkaline phosphatase (alp/alk) / alkaline phosphatase (alp/alk) + systemic / in life observation / body …
rat [11] = conditions: Combined chronic toxicity/carcinogenicity, sprague dawley, Oral, Feed, dose end: 24 month, group: systemic
rat [12] = conditions: Multigenerational reproductive toxicity study, other, Oral, Feed, dose end: 2 generation
dog [13] = conditions: Chronic toxicity, beagle, Oral, Feed, dose end: 52 week, group: systemic
rat [14] = conditions: Prenatal developmental toxicity study, other, Oral, Gavage/Intubation, dose end: 15 GD
[15] = systemic / pathology microscopic / kidney / inflammation + systemic / in life observation / mortality / mortality + systemic / pathology …
[16] = group: offspring, developmental / offspring survival late / viability index / viability index
[17] = group: offspring, developmental / offspring survival late / viability index / viability index + systemic / in life observation / body weight / offspring (pup…
[18] = group: parental, systemic / organ weight / kidney / relative to body weight
[19] = group: parental, systemic / organ weight / kidney / relative to body weight + systemic / organ weight / kidney / absolute + systemic / pathology gross / …
[20] = group: parental, systemic / organ weight / kidney / absolute + systemic / organ weight / kidney / relative to body weight
[21] = group: reproductive, reproductive / offspring survival early / dead fetuses / dead fetuses + reproductive / offspring survival early / litter size / litter size
[22] = systemic / in life observation / clinical signs / perineal soiling + systemic / organ weight / adrenal gland / relative to body weight + …
[23] = systemic / pathology microscopic / kidney / degeneration
[24] = systemic / pathology microscopic / kidney / degeneration + systemic / in life observation / body weight / body weight gain + systemic / in …
[25] = systemic / clinical chemistry / alkaline phosphatase (alp/alk) / alkaline phosphatase (alp/alk) + systemic / organ weight / liver / absolute…
[26] = systemic / organ weight / liver / relative to body weight
[27] = systemic / in life observation / body weight / body weight + systemic / organ weight / spleen / relative to body weight
[28] = group: developmental, developmental / developmental malformation / bone / full supernumerary
[29] = group: developmental, developmental / developmental malformation / bone / full supernumerary + developmental / developmental malformation / bone / extra …
[30] = group: maternal, systemic / in life observation / body weight / body weight gain + systemic / in life observation / food consumption / food consumption + …
[31] = systemic / pathology microscopic / liver / hypertrophy
[32] = systemic / pathology microscopic / liver / hypertrophy + systemic / clinical chemistry / albumin / albumin + systemic / clinical chemistry…
[33] = group: offspring, developmental / developmental landmark / eye opening / eye opening + systemic / in life observation / body weight / offspring (pup) weight
[34] = group: parental, systemic / organ weight / liver / relative to body weight
[35] = systemic / hematology / anemia / anemia - nos + systemic / clinical chemistry / cholesterol / cholesterol + systemic / clinical chemistry / …
[36] = group: developmental, developmental / developmental malformation / bone / incomplete ossification
[37] = group: developmental, developmental / developmental malformation / bone / incomplete ossification + developmental / developmental malformation / bone / dumbbell …
[38] = group: maternal, systemic / in life observation / body weight / body weight gain + systemic / in life observation / food consumption / food consumption

In the case of `Nc1c(Cl)c(F)nc(OCC(=O)O)c1Cl` [Fluroxypyr], the LEL (rat [1]; [15]) is reported as 750 mg/kg/day, the LOAEL (rat [1]; [15]) is reported as 750 mg/kg/day and the NEL (rat [1]; systemic / urinalysis / ph / ph + systemic / clinical chemistry / alanine aminotransferase (alt/sgpt) / alanine aminotransferase (alt/sgpt…) is reported as 80 mg/kg/day. It also gave an LEL (rat [2]; [16]) of 500 mg/kg/day, an LOAEL (rat [2]; [16]) of 500 mg/kg/day and an NEL (rat [2]; [17]) of 100 mg/kg/day. For the same compound, the NOAEL (rat [2]; [17]) was 100 mg/kg/day, the LEL (rat [2]; [18]) was 100 mg/kg/day and the NEL (rat [2]; [18]) was under 100 mg/kg/day. It also gave an LOAEL (rat [2]; [19]) of 500 mg/kg/day, an NOAEL (rat [2]; [19]) of 100 mg/kg/day and an LEL (mouse [3]) of 1000 mg/kg/day. The LOAEL (mouse [3]) was 1000 mg/kg/day, the NEL (mouse [3]) was 300 mg/kg/day and the NOAEL (mouse [3]) was 300 mg/kg/day. It also gave an LEL (rat [4]; group: offspring, developmental / developmental malformation / general / runts) of 500 mg/kg/day, an NEL (rat [4]; group: offspring, developmental / developmental malformation / general / runts + developmental / developmental malformation / eye / anophthalmia + …) of 100 mg/kg/day and an NOAEL (rat [4]; group: offspring, developmental / developmental malformation / general / runts + systemic / in life observation / body weight / offspring (pup) weight gain + …) of 500 mg/kg/day. For the same compound, the LOAEL (rat [4]; group: offspring, systemic / in life observation / body weight / offspring (pup) weight gain + systemic / in life observation / body weight / offspring (pup) …) was 750 mg/kg/day, the NOAEL (rat [4]; group: parental, systemic / organ weight / kidney / absolute + systemic / in life observation / body weight / body weight + systemic / in life observation / …) was 100 mg/kg/day and the LEL (rat [4]; [20]) was 100 mg/kg/day. The NEL (rat [4]; [20]) was under 100 mg/kg/day, the LOAEL (rat [4]; group: parental, systemic / organ weight / kidney / absolute + systemic / organ weight / kidney / relative to body weight + systemic / pathology microscopic…) was 500 mg/kg/day and the LEL (rat [4]; [21]) was 750 mg/kg/day. It also gave an LOAEL (rat [4]; [21]) of 750 mg/kg/day, an NEL (rat [4]; [21]) of 500 mg/kg/day and an NOAEL (rat [4]; [21]) of 500 mg/kg/day. For the same compound, the LEL (rat [5]; [22]) was 100 mg/kg/day, the NEL (rat [5]; [22]) was under 100 mg/kg/day and the NOAEL (rat [5]; [22]) was 100 mg/kg/day. For the same compound, the LOAEL (rat [5]; systemic / organ weight / kidney / relative to body weight + systemic / pathology microscopic / kidney / nephropathy + systemic / organ …) was 500 mg/kg/day, the LEL (rat [6]; systemic / hematology / hemoglobin (hgb) / hemoglobin (hgb) + systemic / urinalysis / specific gravity/osmolality / specific gravity/…) was 700 mg/kg/day and the NEL (rat [6]; systemic / in life observation / body weight / body weight gain + systemic / organ weight / testes / absolute + systemic / hematology / …) was 320 mg/kg/day. The NOAEL (rat [6]; systemic / organ weight / brain / absolute + systemic / hematology / erythrocyte (rbc) count differential / erythrocyte (rbc) + systemic / …) was 700 mg/kg/day, the LOAEL (rat [6]; systemic / organ weight / brain / absolute + systemic / in life observation / body weight / body weight gain + systemic / organ weight / …) was 1000 mg/kg/day and the LEL (mouse [7]; [23]) was 132 mg/kg/day. It also gave an LOAEL (mouse [7]; [23]) of 132 mg/kg/day, an NEL (mouse [7]; [24]) of 14 mg/kg/day and an NOAEL (mouse [7]; [24]) of 14 mg/kg/day.

`CC1=NNC(=O)N(/N=C/c2cccnc2)C1` [Pymetrozine] was tested, and the LOAEL (dog [8]; [25]) was 14 mg/kg/day, the NOAEL (dog [8]; [25]) was 3.12 mg/kg/day and the LEL (dog [8]; [26]) was 3.12 mg/kg/day. For the same compound, the NEL (dog [8]; [26]) was under 3.12 mg/kg/day, the NOAEL (mouse [9]; systemic / in life observation / body weight / body weight + systemic / organ weight / liver / relative to body weight + systemic / …) was 12 mg/kg/day and the LEL (mouse [9]; [27]) was 1.2 mg/kg/day. For the same compound, the NEL (mouse [9]; [27]) was under 1.2 mg/kg/day, the LOAEL (mouse [9]; systemic / organ weight / liver / relative to body weight + systemic / pathology microscopic / liver / hypertrophy + systemic / pathology …) was 250 mg/kg/day and the LEL (rabbit; [28]) was 75 mg/kg/day. It also gave an LOAEL (rabbit; [28]) of 75 mg/kg/day, an NEL (rabbit; [29]) of 10 mg/kg/day and an NOAEL (rabbit; [29]) of 10 mg/kg/day. It also gave an LEL (rabbit; [30]) of 75 mg/kg/day, an LOAEL (rabbit; [30]) of 75 mg/kg/day and an NEL (rabbit; [30]) of 10 mg/kg/day. The NOAEL (rabbit; [30]) was 10 mg/kg/day, the LEL (rat [10]) was 360 mg/kg/day and the LOAEL (rat [10]) was 360 mg/kg/day. For the same compound, the NOAEL (rat [10]) was 32.5 mg/kg/day, the LEL (rat [11]; [31]) was 3.76 mg/kg/day and the LOAEL (rat [11]; [31]) was 3.76 mg/kg/day. The NEL (rat [11]; [32]) was 0.377 mg/kg/day, the NOAEL (rat [11]; [32]) was 0.377 mg/kg/day and the LEL (rat [12]; [33]) was 100 mg/kg/day. For the same compound, the LOAEL (rat [12]; [33]) was 100 mg/kg/day, the NEL (rat [12]; [33]) was 10 mg/kg/day and the NOAEL (rat [12]; [33]) was 10 mg/kg/day. It also gave an LEL (rat [12]; [34]) of 1.7 mg/kg/day, an NEL (rat [12]; [34]) of under 1.7 mg/kg/day and an LOAEL (rat [12]; group: parental, systemic / pathology microscopic / liver / hypertrophy) of 13.9 mg/kg/day. For the same compound, the NOAEL (rat [12]; group: parental, systemic / pathology microscopic / liver / hypertrophy + systemic / in life observation / body weight / body weight + systemic / in life …) was 1.4 mg/kg/day, the LEL (dog [13]; systemic / clinical chemistry / cholesterol / cholesterol + systemic / organ weight / liver / absolute + systemic / organ weight / liver / …) was 5.33 mg/kg/day and the NEL (dog [13]; [35]) was 0.57 mg/kg/day. It also gave an NOAEL (dog [13]; [35]) of 5.33 mg/kg/day, an LOAEL (dog [13]; systemic / hematology / anemia / anemia - nos + systemic / pathology microscopic / intestine large / [other] + systemic / pathology …) of 27.8 mg/kg/day and an LEL (rat [14]; [36]) of 30 mg/kg/day. The NEL (rat [14]; [36]) was under 30 mg/kg/day, the LOAEL (rat [14]; [37]) was 300 mg/kg/day and the NOAEL (rat [14]; [37]) was 100 mg/kg/day. It also gave an LEL (rat [14]; [38]) of 100 mg/kg/day, an LOAEL (rat [14]; [38]) of 100 mg/kg/day and an NEL (rat [14]; [38]) of 30 mg/kg/day. The NOAEL (rat [14]; [38]) was 30 mg/kg/day.
